Measurements reported in patent US10363239B2, “Method for inhibiting growth of cancer cells” (Pain Therapeutics, Inc., priority 2013, dated 2019).

Experiments:
[1] = system: breast cancer HTB-22 cells; experiment: [3H]glucose uptake; assay type: cell-based, human; settings: 0.1-5 nM; 4 days
Description: (§1) FIG. 1A through FIG. 1M illustrate the effects of various FLNA-binding compounds on glucose uptake in glioblastoma, melanoma, breast and pancreatic cancer cell lines, along with appropriate non-cancerous primary cell controls. Cells were grown in the absence or presence of 0.1-5 nM indicated compounds for 4 days. Following brief washes with PBS, cells were serum-deprived for 4 hours and then incubated in oxygenated Kreb's Ringer containing 0.1 μCi [^3H]glucose for 2 hours under constant oxygenation. The reaction was terminated by removal of the incubation medium, and cells were washed and scraped off to determine the amounts of [^3H]glucose in cells by scintillation spectrometry. […] N=5-6. […] . […] . To determine the effect of Compound C0105 on glucose utilization, the cancer and primary normal cells were plated extremely thinly (10%). Once cells attached, Compound C0105 was added at 0.1, 0.5, 1 or 5 nM in the medium twice daily (6 hours apart) for 4 days. The cells were serum-deprived (glucose deprived) for 2 hours. Cells were then rinsed with 1 ml PBS and glucose uptake was assessed by contacting the cells with [^3H]glucose (0.01 uCi/l ml) in Kreb's Ringer for 2 hours. Cells were then rinsed with 1 ml PBS 3 times, scraped off and their glucose content counted by liquid scintillation spectrophotometry.

[2] = system: pancreatic cancer MiaPaCa2 cells; experiment: [3H]glucose uptake; assay type: cell-based, human; settings: 0.1-5 nM; 4 days
Description: as §1

[3] = system: primary neuroendocrine tumor cells; experiment: Cell proliferation by Ki67 and PCNA (Western blotting); assay type: cell-based, human; settings: 1 nM; 4 days
[4] = system: MiaPaCa2 cells; experiment: Blocking of compound effects with FLNA decoy pentapeptide VAKGL or control peptide VAAGL; assay type: cell-based, human; settings: 4 days
Description: FIGS. 32A-32D illustrate Western blots of pS^2152FLNA, Ras-GAP, PP2A-Aα/β, PTEN and FLNA in FIG. 32A and Ki67, PCNA and actin in FIG. 32C after four days of incubation (contact) of MiaPaCa2 cells in the presence of medium alone, or medium containing 1 nM Compound C0105 with and without the presence of 10 μM peptide VAAGL (SEQ ID NO: 2) or peptide VAKGL (SEQ ID NO: 1). Densitometric quantification of the Western blot results are shown in the graphs of FIG. 32B for the amounts of pS^2152FLNA, Ras-GAP, PP2A-Aα/β and PTEN in anti-FLNA immunoprecipitates and the amounts of Ki76 and PCNA (normalized by actin) in FIG. 32D. N=4, *p<0.01.
To confirm that Compound C0105 effects are mediated by binding to FLNA pentapeptide VAKGL (SEQ ID NO: 1), cancer cells were incubated with vehicle or 1 nM Compound C0105 together with 10 μM of decoy pentapeptide (VAKGL) or control peptide, VAAGL (K-A decoy peptide; SEQ ID NO: 2) for 4 days as described previously.
Cells were harvested by centrifugation and solubilized, and lysates were immunoprecipitated with anti-FLNA. Levels of pS^2152FLNA, PTEN, PP2A-Aα, PP2A-Aβ and Ras-GAP in the anti-FLNA immunoprecipitates were determined by Western blotting.
A separate series of studies was undertaken to determine whether Compound C0105's reduction in proliferation markers is also mediated by Compound C0105 binding to the pentapeptide region of FLNA. As above, cancer cells were incubated for 4 days with vehicle or 1 nM Compound C0105 together with 10 μM of decoy pentapeptide (VAKGL; SEQ ID NO: 1) or control peptide, VAAGL (SEQ ID NO: 2).
Cells were harvested by centrifugation and the resultant cell pellets were washed and sonicated in ice-cold immunoprecipitation buffer. Protein concentrations were measured by the Bradford method. […] Fifty μl of solubilized cell lysates were separated using SDS-PAGE, the protein bands electrophoretically transferred to nitrocellulose membranes and the level of cell proliferation was determined by Western blotting using the levels of Ki67 and PCNA as described previously.

[5] = target: T1, FLNA from HPECs (Homo sapiens, UniProt P21333); experiment: Isoelectric focusing of purified FLNA (FLNA conformation); assay type: cell-based; settings: 1 nM; 4 days
T1 construct: FLNA was purified separately from MiaPaCa2 cells and from HPECs; endogenous in cells; host or cells: primary human pancreatic epithelial cells (HPEC)
Description: (§2) FIGS. 33A and 33B show isoelectric focusing result data (FIG. 33A) for FLNA separately isolated from HPEC and MiaPaCa2 cells after four days of incubation (contact) of those cells with medium alone or medium plus 1 nM Compound C0105. […] N=4, *p<0.01.
(§3) To determine whether the conformation of FLNA is different in cancer and primary normal cells and whether Compound C0105 affects FLNA conformation, FLNA was purified from cancer and primary cells after incubation with vehicle or 1 nM Compound C0105 for 4 days. Cells were washed with PBS, scraped, sonicated for 10 seconds and solubilized using 0.5% digitonin/0.2% sodium cholate/0.5% NP-40 at 4° C. with end-over-end rotation for 1 hour. Following centrifugation to remove insoluble debris, the obtained lysate was treated with 1% SDS for 1 minute to dissociate the […] proteins, diluted 10-fold with immunoprecipitation buffer, and immunopurified with immobilized anti-FLNA. The resultant FLNA was eluted using 200 μl antigen-elution buffer (Thermo), neutralized immediately with 100 mM Tris HCl (pH9.0), diluted to 500 μl with 50 mM Tris HCl, pH7.5, and passed through a 100 kD cut-off filter.
(§4) The purified FLNA was suspended in the 100 μl isoelectric focusing sample buffer. […]

[6] = target: T2, FLNA from MiaPaCa2 cells (Homo sapiens, UniProt P21333); experiment: as above; assay type: cell-based; settings: 1 nM; 4 days
T2 construct: FLNA was purified separately from MiaPaCa2 cells and from HPECs; endogenous in cells; host or cells: MiaPaCa2 (MIA PaCa-2, ATCC CRL-1420)
Description: as §2, §3, §4

T1 sequence (P21333 whole entry): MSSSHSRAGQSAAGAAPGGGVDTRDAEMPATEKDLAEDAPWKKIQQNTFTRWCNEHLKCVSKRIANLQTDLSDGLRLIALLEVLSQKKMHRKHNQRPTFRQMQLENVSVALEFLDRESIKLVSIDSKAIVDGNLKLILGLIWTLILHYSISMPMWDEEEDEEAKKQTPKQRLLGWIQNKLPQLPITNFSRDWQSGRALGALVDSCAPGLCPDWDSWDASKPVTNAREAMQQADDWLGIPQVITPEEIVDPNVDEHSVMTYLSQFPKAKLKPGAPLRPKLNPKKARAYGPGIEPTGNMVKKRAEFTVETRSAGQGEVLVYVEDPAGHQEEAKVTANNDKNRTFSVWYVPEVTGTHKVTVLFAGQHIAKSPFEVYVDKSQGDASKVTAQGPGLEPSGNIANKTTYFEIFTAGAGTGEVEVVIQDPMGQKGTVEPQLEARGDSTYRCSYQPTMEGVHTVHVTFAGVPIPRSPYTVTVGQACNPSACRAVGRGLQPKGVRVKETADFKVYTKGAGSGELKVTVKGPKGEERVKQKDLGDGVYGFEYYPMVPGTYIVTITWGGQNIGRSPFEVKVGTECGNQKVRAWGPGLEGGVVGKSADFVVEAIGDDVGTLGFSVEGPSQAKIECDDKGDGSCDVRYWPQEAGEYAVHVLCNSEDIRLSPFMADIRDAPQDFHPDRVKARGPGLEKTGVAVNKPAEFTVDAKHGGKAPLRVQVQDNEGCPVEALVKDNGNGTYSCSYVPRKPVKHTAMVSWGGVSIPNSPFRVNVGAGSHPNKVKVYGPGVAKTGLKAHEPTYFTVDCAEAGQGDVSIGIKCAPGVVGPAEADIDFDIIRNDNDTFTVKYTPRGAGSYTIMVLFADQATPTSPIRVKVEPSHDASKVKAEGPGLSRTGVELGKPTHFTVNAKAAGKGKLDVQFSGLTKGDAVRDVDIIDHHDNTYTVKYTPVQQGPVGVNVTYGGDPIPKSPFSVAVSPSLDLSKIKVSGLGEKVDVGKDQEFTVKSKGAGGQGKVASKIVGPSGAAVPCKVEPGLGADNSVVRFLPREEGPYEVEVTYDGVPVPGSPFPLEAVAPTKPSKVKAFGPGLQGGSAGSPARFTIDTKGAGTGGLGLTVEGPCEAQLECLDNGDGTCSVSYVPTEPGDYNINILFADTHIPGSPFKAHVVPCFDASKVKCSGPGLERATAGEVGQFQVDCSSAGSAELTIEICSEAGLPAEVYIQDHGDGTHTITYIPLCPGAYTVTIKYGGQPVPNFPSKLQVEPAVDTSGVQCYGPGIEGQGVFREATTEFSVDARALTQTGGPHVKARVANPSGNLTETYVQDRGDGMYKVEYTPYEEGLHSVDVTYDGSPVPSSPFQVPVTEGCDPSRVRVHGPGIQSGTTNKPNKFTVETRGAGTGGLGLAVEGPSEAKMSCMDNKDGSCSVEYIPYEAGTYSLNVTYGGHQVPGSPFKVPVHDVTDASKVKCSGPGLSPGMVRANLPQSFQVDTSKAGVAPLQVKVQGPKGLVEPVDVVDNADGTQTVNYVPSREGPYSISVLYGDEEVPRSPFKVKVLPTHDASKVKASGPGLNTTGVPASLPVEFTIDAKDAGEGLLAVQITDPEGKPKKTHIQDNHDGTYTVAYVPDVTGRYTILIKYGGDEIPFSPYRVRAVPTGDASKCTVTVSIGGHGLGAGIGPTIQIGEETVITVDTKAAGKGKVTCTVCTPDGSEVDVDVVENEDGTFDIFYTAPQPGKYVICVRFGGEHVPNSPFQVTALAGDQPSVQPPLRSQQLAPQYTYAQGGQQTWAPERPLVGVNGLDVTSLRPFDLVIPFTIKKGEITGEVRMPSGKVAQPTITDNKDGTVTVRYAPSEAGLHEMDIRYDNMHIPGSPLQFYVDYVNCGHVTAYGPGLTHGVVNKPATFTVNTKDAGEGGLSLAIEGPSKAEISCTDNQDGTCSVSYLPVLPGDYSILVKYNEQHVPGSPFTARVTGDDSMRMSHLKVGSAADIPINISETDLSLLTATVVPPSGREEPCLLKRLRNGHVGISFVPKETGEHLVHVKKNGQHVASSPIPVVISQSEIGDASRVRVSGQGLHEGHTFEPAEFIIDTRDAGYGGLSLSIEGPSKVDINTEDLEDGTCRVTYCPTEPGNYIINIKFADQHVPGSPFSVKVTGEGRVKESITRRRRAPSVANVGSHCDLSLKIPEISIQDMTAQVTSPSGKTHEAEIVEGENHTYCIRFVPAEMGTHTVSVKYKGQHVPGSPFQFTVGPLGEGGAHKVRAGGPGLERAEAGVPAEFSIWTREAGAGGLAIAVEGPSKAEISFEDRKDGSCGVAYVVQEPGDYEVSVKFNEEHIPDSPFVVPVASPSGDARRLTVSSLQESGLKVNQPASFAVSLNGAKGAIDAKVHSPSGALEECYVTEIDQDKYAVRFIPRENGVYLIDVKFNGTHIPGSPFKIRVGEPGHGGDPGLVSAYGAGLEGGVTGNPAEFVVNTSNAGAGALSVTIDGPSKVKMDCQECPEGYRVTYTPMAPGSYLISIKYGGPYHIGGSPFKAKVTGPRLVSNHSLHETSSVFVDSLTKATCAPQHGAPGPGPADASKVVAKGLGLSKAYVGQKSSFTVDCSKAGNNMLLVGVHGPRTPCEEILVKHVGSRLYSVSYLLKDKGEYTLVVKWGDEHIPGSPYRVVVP
T2 sequence (P21333 whole entry): as above

For `CN1CCC2(CC1)NCC(=O)N2Cc1ccccc1` [Compound C0105], the Basal glucose uptake [1] was “dose-dependent inhibition of basal glucose uptake”, the Basal glucose uptake [2] was “dose-dependent inhibition of basal glucose uptake” and the “Cell proliferation (Ki67 and PCNA levels)” value [3] was “Inhibits Proliferation”. The “Effect on pS2152FLNA and FLNA associations when co-incubated with control peptide VAAGL” value ([4]; 1 nM compound + 10 μM VAAGL (SEQ ID NO: 2)) was “did not disrupt Compound C0105 effects”, the “Effect on pS2152FLNA and FLNA associations when co-incubated with VAKGL decoy pentapeptide” value ([4]; 1 nM compound + 10 μM VAKGL (SEQ ID NO: 1)) was “lost its effect on pS^2152FLNA hyperphosphorylation and on FLNA associations with ras-GAP, PTEN and PP2A” and the “Reduction in cell proliferation (Ki67, PCNA) when co-incubated with VAKGL decoy pentapeptide” value ([4]; 1 nM compound + 10 μM VAKGL) was “disrupted Compound C0105's reduction in cell proliferation”. The “pI of FLNA” value [5] was “no effect on the pI” and the “Fraction of FLNA restored to the conformation (pI) present in HPECs” value [6] was “about 75%”.
